Measured values reported in patent US8952024B2, “Herbicidal pyrimidone derivatives” (E I du Pont de Nemours and Company, priority 2009, dated 2015).

How the values were obtained:
Test in all cases: Test B pre-/postemergence plant response
Format in all cases: in vivo
[1] = system: pigweed (Amaranthus retroflexus); settings: Postemergence
How it was run: (§1)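 Pre-em in loam/sand; post-em at 1–4 leaf (2–18 cm) in peat mix. Solvent + surfactant formulation. Greenhouse 13–15 d; visual % control vs untreated, 0–100.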

[2] = system: blackgrass (Alopecurus myosuroides); settings: Postemergence
How it was run: as §1

[3] = system: downy bromegrass (Bromus tectorum); settings: Postemergence
How it was run: as §1

[4] = system: cocklebur (Xanthium strumarium); settings: Postemergence, scale 0 to 100 (0 no effect, 100 complete control)
How it was run: as §1

[5] = system: bermudagrass (Cynodon dactylon); settings: Postemergence
How it was run: as §1

kochia (Kochia scoparia) = settings: Postemergence
How it was run: as §1

corn (Zea mays) = settings: Postemergence
How it was run: as §1

[6] = system: Surinam grass (Brachiaria decumbens); settings: Postemergence
How it was run: as §1

soybean (Glycine max) = settings: Postemergence
How it was run: as §1

[7] = system: ragweed (common ragweed, Ambrosia elatior); settings: Postemergence
How it was run: as §1

[8] = system: velvetleaf (Abutilon theophrasti); settings: Postemergence
How it was run: as §1

[9] = system: large crabgrass (Digitaria sanguinalis); settings: Postemergence
How it was run: as §1

[10] = system: Italian ryegrass (Lolium multiflorum); settings: Postemergence
How it was run: as §1

[11] = system: lambsquarters (Chenopodium album); settings: Postemergence
How it was run: as §1

[12] = system: yellow nutsedge (Cyperus esculentus); settings: Postemergence
How it was run: as §1

wild oat (Avena fatua) = settings: Postemergence
How it was run: as §1

[13] = system: green foxtail (Setaria viridis); settings: Postemergence
How it was run: as §1

[14] = 31 g ai/ha, 0 to 100 scale (0 no effect, 100 complete control)
[15] = 62 g ai/ha, scale 0 to 100 (0 no effect, 100 complete control)
[16] = 125 g ai/ha, scale 0 to 100 (0 no effect, 100 complete control)
[17] = 250 g ai/ha, scale 0 to 100 (0 no effect, 100 complete control), 13 to 15 days

`CCn1c(-c2cccc(F)c2)ncc(C(=O)C2=C(O)C3CCC(C3)C2=O)c1=O` (centres unmarked) [Compound 236] was tested, and the “Plant response rating, Pigweed” value [1, 14] was 85, the “Plant response rating, Pigweed” value [1, 15] was 85 and the “Plant response rating, Blackgrass” value [2, 14] was 0. For the same molecule, the “Plant response rating, Blackgrass” value [2, 16] was 30, the “Plant response rating, Blackgrass” value [2, 17] was 40 and the “Plant response rating, Blackgrass” value [2, 15] was 5. The “Plant response rating, Bromegrass, Downy” value [3, 14] was 0, the “Plant response rating, Bromegrass, Downy” value [3, 16] was 10 and the “Plant response rating, Bromegrass, Downy” value [3, 17] was 25. The “Plant response rating, Bromegrass, Downy” value [3, 15] was 5, the “Plant response rating, Cocklebur” value ([4]; 125 g ai/ha) was 100 and the “Plant response rating, Cocklebur” value ([4]; 250 g ai/ha, 13 to 15 days) was 100. For the same molecule, the “Plant response rating, Cocklebur” value ([4]; 62 g ai/ha) was 100, the “Plant response rating, Bermudagrass” value [5, 14] was 95 and the “Plant response rating, Bermudagrass” value [5, 16] was 98. The “Plant response rating, Bermudagrass” value [5, 15] was 98, the “Plant response rating, Kochia” value (kochia (Kochia scoparia); [14]) was 80 and the “Plant response rating, Kochia” value (kochia (Kochia scoparia); [16]) was 100. The “Plant response rating, Kochia” value (kochia (Kochia scoparia); [17]) was 100, the “Plant response rating, Kochia” value (kochia (Kochia scoparia); [15]) was 98 and the “Plant response rating, Corn” value (corn (Zea mays); [14]) was 15. The “Plant response rating, Corn” value (corn (Zea mays); [16]) was 70, the “Plant response rating, Corn” value (corn (Zea mays); [15]) was 60 and the “Plant response rating, Surinam Grass” value [6, 14] was 60. For the same molecule, the “Plant response rating, Surinam Grass” value [6, 15] was 70, the “Plant response rating, Soybean” value (soybean (Glycine max); [14]) was 90 and the “Plant response rating, Soybean” value (soybean (Glycine max); [17]) was 100. For the same molecule, the “Plant response rating, Soybean” value (soybean (Glycine max); [15]) was 98, the “Plant response rating, Ragweed” value [7, 14] was 80 and the “Plant response rating, Ragweed” value [7, 17] was 98. For the same molecule, the “Plant response rating, Ragweed” value [7, 15] was 95, the “Plant response rating, Velvetleaf” value [8, 14] was 98 and the “Plant response rating, Velvetleaf” value [8, 17] was 100. The “Plant response rating, Velvetleaf” value [8, 15] was 100, the “Plant response rating, Crabgrass, Large” value [9, 14] was 75 and the “Plant response rating, Crabgrass, Large” value [9, 16] was 98. The “Plant response rating, Crabgrass, Large” value [9, 17] was 100, the “Plant response rating, Crabgrass, Large” value [9, 15] was 90 and the “Plant response rating, Ryegrass, Italian” value [10, 14] was 0. For the same molecule, the “Plant response rating, Ryegrass, Italian” value [10, 17] was 5, the “Plant response rating, Ryegrass, Italian” value [10, 15] was 0 and the “Plant response rating, Lambsquarters” value [11, 14] was 98. For the same molecule, the “Plant response rating, Lambsquarters” value [11, 16] was 100, the “Plant response rating, Lambsquarters” value [11, 17] was 100 and the “Plant response rating, Lambsquarters” value [11, 15] was 100. The “Plant response rating, Nutsedge, Yellow” value [12, 14] was 0, the “Plant response rating, Nutsedge, Yellow” value [12, 16] was 15 and the “Plant response rating, Nutsedge, Yellow” value [12, 17] was 65. For the same molecule, the “Plant response rating, Nutsedge, Yellow” value [12, 15] was 15, the “Plant response rating, Oat, Wild” value (wild oat (Avena fatua); [14]) was 0 and the “Plant response rating, Oat, Wild” value (wild oat (Avena fatua); [17]) was 60. For the same molecule, the “Plant response rating, Oat, Wild” value (wild oat (Avena fatua); [15]) was 0, the “Plant response rating, Foxtail, Green” value [13, 14] was 80 and the “Plant response rating, Foxtail, Green” value [13, 16] was 98. For the same molecule, the “Plant response rating, Foxtail, Green” value [13, 17] was 98 and the “Plant response rating, Foxtail, Green” value [13, 15] was 95.
